Experimental data published in the supplement of paper PMC11061612.

Experiments:
[1] = system: OSC-20 (Oral Cavity Carcinoma); assay: Bliss excess, mean over the matrix (fraction); higher = more synergy
In short: (§1)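 After 24 hours at 37°C and 5% CO2 in 1536-well plates, cells in DMEM/F12 or RPMI plus 10% FBS received two-drug dose matrices for 72 hours. Viability came from CellTiter-Glo 2.0 luminescence and was scaled as inhibition, anchored at 0 by vehicle wells and at 1 by blank wells. Combination Emax is taken as the second-highest inhibition in the matrix, and Bliss excess as the observed combination effect less EA + EB − EA·EB, with EA and EB the single-agent effects.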

[2] = system: OSC-20 (Oral Cavity Carcinoma); assay: combination Emax (second highest fraction inhibited in the dose matrix, 72 h); higher = more inhibition; extreme values may be limits of the assay
In short: as §1

[3] = system: MLMA (Other Blood Carcinomas); assay: as above
In short: as §1

[4] = system: Ca9-22 (Head and Neck Carcinoma); assay: as above
In short: as §1

[5] = system: HGC-27 (Gastric Carcinoma); assay: as above
In short: as §1

[6] = system: D-263MG (Glioblastoma); assay: as above
In short: as §1

[7] = system: MIA-PaCa-2 (Pancreatic Carcinoma); assay: as above
In short: as §1

[8] = system: OE19 (Esophageal Adenocarcinoma); assay: as above
In short: as §1

[9] = system: YH-13 (Glioblastoma); assay: as above
In short: as §1

[10] = system: PANC-04-03 (Pancreatic Carcinoma); assay: as above
In short: as §1

[11] = system: NCI-H727 (Other Solid Carcinomas); assay: as above
In short: as §1

[12] = system: BT-549 (Breast Carcinoma); assay: as above
In short: as §1

[13] = system: TGW (Neuroblastoma); assay: as above
In short: as §1

[14] = system: Caov-4 (Ovarian Carcinoma); assay: as above
In short: as §1

[15] = system: EFM-19 (Breast Carcinoma); assay: as above
In short: as §1

[16] = system: NB69 (Neuroblastoma); assay: as above
In short: as §1

[17] = system: SU8686 (Pancreatic Carcinoma); assay: as above
In short: as §1

[18] = system: OVCAR-4 (Ovarian Carcinoma); assay: as above
In short: as §1

[19] = system: HOP-62 (Lung Adenocarcinoma); assay: as above
In short: as §1

[20] = system: TK10 (Kidney Carcinoma); assay: as above
In short: as §1
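Throughout, for Bliss excess, mean over the matrix: after 72 h of two-drug dosing.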

SMILES | Bliss excess [1] | combination Emax [2] | combination Emax [3] | combination Emax [4] | combination Emax [5] | combination Emax [6] | combination Emax [7] | combination Emax [8] | combination Emax [9] | combination Emax [10] | combination Emax [11] | combination Emax [12] | combination Emax [13] | combination Emax [14] | combination Emax [15] | combination Emax [16] | combination Emax [17] | combination Emax [18] | combination Emax [19] | combination Emax [20]
COc1cccc(OCCCN)c1-c1cc(Nc2cnc(C#N)cn2)n[nH]1 [Prexasertib] + Cc1cc2ncnn2cc1Nc1ncc2c(n1)n(C1CCOCC1)c(=O)n2C [AZD7648] (first compound max 1 µM, 7x7, partner max 10 µM) | 0.0115 | 0.599 | 0.96 | 1 | 0.858 | 0.835 | 0.792 | 0.897 | 0.869 | 0.599 | 0.695 | 0.672 | 0.947 | 0.959 | 0.349 | 0.906 | 0.528 | 0.777 | 0.582 | 0.738
CN(C)CCCOc1ccc(-c2ccc3ncc4c(c3c2)n(C2CCOCC2)c(=O)n4C)cn1 [AZD0156] + O=C(c1cc(Cc2n[nH]c(=O)c3ccccc23)ccc1F)N1CCN(C(=O)C2CC2)CC1 [Olaparib] (first compound max 3 µM, partner max 3 µM) | 0.0433 | 0.245 | 0.363 | 0.465 | 0.478 | 0.196 | 0.226 | 0.512 | 0.453 | 0.32 | 0.286 | 0.102 | 0.413 | 0.154 | 0.533 | 0.474 | 0.146 | 0.149 | 0.122 | 0.197
CC1(C)CCC(CN2CCN(c3ccc(C(=O)NS(=O)(=O)c4ccc(NCC5CCOCC5)c([N+](=O)[O-])c4)c(Oc4cnc5[nH]ccc5c4)c3)CC2)=C(c2ccc(Cl)cc2)C1 [Venetoclax] + C[C@@H](Nc1cc(F)cc(F)c1)c1cc(C(=O)N(C)C)cc2c(=O)cc(N3CCOCC3)oc12 [AZD8186] (first compound max 1 µM, 7x7, partner max 3 µM) | -0.0516 | 0.128 | 0.89 | 0.471 | 0.54 | 0.142 | 0.153 | 0.306 | 0.441 | 0.149 | 0.274 | 0.258 | 0.377 | 0.171 | 0.412 | 0.998 | 0.127 | 0.138 | 0.264 | 0.465
CC1(C)CCC(CN2CCN(c3ccc(C(=O)NS(=O)(=O)c4ccc(NCC5CCOCC5)c([N+](=O)[O-])c4)c(Oc4cnc5[nH]ccc5c4)c3)CC2)=C(c2ccc(Cl)cc2)C1 [Venetoclax] + CN(C)CCCOc1ccc(-c2ccc3ncc4c(c3c2)n(C2CCOCC2)c(=O)n4C)cn1 [AZD0156] (first compound max 1 µM, 7x7, partner max 1 µM) | -0.0304 | 0.16 | 0.93 | 0.48 | 0.362 | 0.171 | 0.375 | 0.281 | 0.198 | 0.18 | 0.317 | 0.179 | 0.32 | 0.226 | 0.546 | 0.329 | 0.152 | 0.173 | 0.242 | 0.304
COc1nnc2ccc(N3CCC(c4ccc(OCCN5CCN(C)C(=O)[C@H]5C)cc4)CC3)nn12 [AZD5153] + Cc1c2c(nn1C)CSCc1cc(n(C)n1)CSc1cc(c3ccccc3c1)OCCCc1c(C(=O)O)n(C)c3c-2c(Cl)ccc13 [AZD5991] (first compound max 1 µM, 7x7, partner max 1 µM) | -0.0091 | 0.199 | 0.994 | 0.815 | 0.987 | 0.98 | 0.993 | 0.623 | 0.667 | 0.442 | 0.388 | 0.814 | 0.808 | 0.86 | 0.773 | 0.998 | 0.134 | 0.523 | 0.602 | 0.593
CN(C)CCCOc1ccc(-c2ccc3ncc4c(c3c2)n(C2CCOCC2)c(=O)n4C)cn1 [AZD0156] + C=CCn1c(=O)c2cnc(Nc3ccc(N4CCN(C)CC4)cc3)nc2n1-c1cccc(C(C)(C)O)n1 [AZD1775] (first compound max 1 µM, partner max 1 µM) | -0.0443 | 0.233 | 0.908 | 0.721 | 0.499 | 0.38 | 0.595 | 0.427 | 0.352 | 0.471 | 0.333 | 0.613 | 0.769 | 0.753 | 0.607 | 0.877 | 0.208 | 0.55 | 0.266 | 0.353
NC1(C(=O)N[C@@H](CCO)c2ccc(Cl)cc2)CCN(c2ncnc3[nH]ccc23)CC1 [Capivasertib] + C[C@@H]1COCCN1C2=NC(=NC(=C2)C3(CC3)[S@](=N)(=O)C)C4=C5C=CNC5=NC=C4 [AZD6738] (first compound max 10 µM, 7x7, partner max 10 µM) | -0.0194 | 0.431 | 0.771 | 0.872 | 0.923 | 0.442 | 0.542 | 0.698 | 0.648 | 0.575 | 0.58 | 0.511 | 0.614 | 0.825 | 0.526 | 0.849 | 0.166 | 0.707 | 0.652 | 0.605
